Assay results reported in patent US11957684B2, “Treatment of heavy menstrual bleeding associated with uterine fibroids” (Sumitomo Pharma Switzerland GmbH, priority 2016, dated 2024).
“And” between values parts separate entries of the source, which are not always exact repeats. Identical values can stand only once. Like-named read-outs stand apart in the source and are kept apart here.

Tests used:
uterine fibroids = test: Example 10 phase 3 study versus leuprorelin in uterine fibroids: efficacy; format: in vivo, human; details: between Week 6 and Week 12
Method: Subjects were aged 20 years or older inclusive, with uterine fibroids. […] The number of sites for this study was approximately 40.
The leuprorelin subjects were administered 1.88 mg leuprorelin, 3.75 mg leuprorelin, or placebo subcutaneously once every 4 weeks. The duration of treatment for both groups was 24 weeks, and the follow-up period was 4 weeks.
Assessment included answers to the uterine fibroid symptom and quality of life questionnaire provided in FIGS. 3A-3C; answers to the work productivity and activity impairment questionnaire: general health provided in FIGS. 66A-66B; clinical laboratory tests for hematology, chemistries, urinalysis, hormone, and biochemical bone metabolism markers.

[1] = test system: endometriosis-associated pain; format: in vivo, human
Method: Subjects assessed and recorded their own quality of life (QOL) using the EHP-30 once a month during the study visit. As used in the examples, the VAS score was evaluated using a 100 mm scale. For pain intensity, the scale was anchored by “no pain” (score of 0) and “pain as bad as you can imagine” (score of 100). […] The above items were evaluated using a patient diary that was distributed by the sponsor. Subjects filled out the patient diary every day during the treatment period or until early termination. If taking prohibited analgesics, subjects recorded this fact in the patient diary along with the accompanying pain symptoms before use of analgesics. As used in the examples, pain during menstruation and pelvic pain unrelated to menstruation were evaluated using scores on the M-B&B and B&B. The M-B&B scores were recorded by subjects on the patient diary supplied by the sponsor. Subjects filled out the patient diary every day during the treatment period or until early termination. If taking prohibited analgesics, subjects recorded this fact in the patient diary along with the accompanying pain symptoms before use of analgesics. The investigator or subinvestigator assessed each patient's pain through interviews and filled out a B&B once a month. The items that were assessed are shown below. The M-B&B score included: dysmenorrhea (severe, moderate, mild, no pain, or no menstruation); pelvic pain (severe, moderate, mild, or no pain); deep dyspareunia (severe, moderate, mild, no pain, or no intercourse). The B&B score included: dysmenorrhea (severe, moderate, mild, none, or not applicable); dyspareunia (severe, moderate, mild, none, or not applicable); pelvic pain (severe, moderate, mild, or none); pelvic tenderness (severe, moderate, mild, or none); and induration (severe, moderate, mild, or none). As used in the examples, the EHP-30 score was obtained by subjects assessing and recording their own QOL using the EHP-30 questionnaire.

CONC(=O)Nc1ccc(-c2sc3c(c2CN(C)C)c(=O)n(-c2ccc(OC)nn2)c(=O)n3Cc2c(F)cccc2F)cc1 [Compound 1, N-(4-(1-(2,6-difluorobenzyl)-5-((dimethylamino)methyl)-3-(6-methoxy-3-pyridazinyl)-2,4-dioxo-1,2,3,4-tetrahydrothieno[2,3-d]pyrimidin-6-yl)phenyl)-N′-methoxyurea]
proportion of subjects with a PBAC <10 (uterine fibroids): 82.2%
change from baseline in mean VAS, dysmenorrhea ([1]; 10 mg, Day 1-28): −10.657±17.0824 mm
change from baseline in mean VAS, dyspareunia ([1]; 10 mg, Day 1-28): 1.642±10.6212 mm
change from baseline in mean VAS, pelvic pain ([1]; 10 mg, Day 1-28): −4.606±7.1304 mm
mean VAS score, dysmenorrhea ([1]; 10 mg, Day 1-28): 17.556±17.0427 mm
mean VAS score, dyspareunia ([1]; 10 mg, Day 1-28): 9.608±15.4027 mm
mean VAS score, pelvic pain ([1]; 10 mg, Day 1-28): 9.988±10.3249 mm
change from baseline in mean VAS, dysmenorrhea ([1]; 10 mg, Day 57-84): −14.747±16.8648 mm
change from baseline in mean VAS, dyspareunia ([1]; 10 mg, Day 57-84): −1.033±12.2047 mm
change from baseline in mean VAS, pelvic pain ([1]; 10 mg, Day 57-84): −6.282±9.1659 mm
mean VAS score, dysmenorrhea ([1]; 10 mg, Day 57-84): 13.568±15.5954 mm
mean VAS score, dyspareunia ([1]; 10 mg, Day 57-84): 10.110±18.5404 mm
mean VAS score, pelvic pain ([1]; 10 mg, Day 57-84): 8.400±10.1329 mm
change from baseline in mean VAS, dysmenorrhea ([1]; 10 mg, Day 141-168): −15.191±17.6754 mm
change from baseline in mean VAS, dyspareunia ([1]; 10 mg, Day 141-168): −4.124±10.5641 mm
change from baseline in mean VAS, pelvic pain ([1]; 10 mg, Day 141-168): −7.872±11.2457 mm
mean VAS score, dysmenorrhea ([1]; 10 mg, Day 141-168): 11.758±15.4431 mm
mean VAS score, dyspareunia ([1]; 10 mg, Day 141-168): 5.550±11.1157 mm
mean VAS score, pelvic pain ([1]; 10 mg, Day 141-168): 6.861±9.2099 mm
change from baseline in EHP-30, control & powerlessness ([1]; 10 mg, Week 24): −13.97±17.502
change from baseline in EHP-30, emotional well-being ([1]; 10 mg, Week 24): −8.38±15.918
change from baseline in EHP-30, pain ([1]; 10 mg, Week 24): −16.98±20.286
change from baseline in EHP-30, social support ([1]; 10 mg, Week 24): −7.52±10.840
change from baseline in mean B&B score, dysmenorrhea ([1]; 10 mg, Week 24): −1.0±0.87
change from baseline in mean B&B score, dyspareunia ([1]; 10 mg, Week 24): −0.3±0.67
change from baseline in mean B&B score, pelvic pain ([1]; 10 mg, Week 24): −0.8±0.79
change from baseline in mean B&B score, pelvic tenderness ([1]; 10 mg, Week 24): −0.7±0.83
subjects without pain in B&B score, dysmenorrhea ([1]; 10 mg, Week 24): 27.8%
subjects without pain in B&B score, dyspareunia ([1]; 10 mg, Week 24): 63.9%
subjects without pain in B&B score, pelvic pain ([1]; 10 mg, Week 24): 30.4%
subjects without pain in B&B score, pelvic tenderness ([1]; 10 mg, Week 24): 35.4%
change from baseline in maximum M-B&B score, dysmenorrhea ([1]; 10 mg, end of treatment): −0.7±1.01
change from baseline in maximum M-B&B score, dyspareunia ([1]; 10 mg, end of treatment): −0.2±0.69
change from baseline in maximum M-B&B score, pelvic pain ([1]; 10 mg, end of treatment): −0.7±0.94
change from baseline in maximum VAS, dysmenorrhea ([1]; 10 mg, end of treatment): −26.4±27.37 mm
change from baseline in maximum VAS, dyspareunia ([1]; 10 mg, end of treatment): −4.2±16.30 mm
change from baseline in maximum VAS, pelvic pain ([1]; 10 mg, end of treatment): −24.0±27.54 mm
change from baseline in mean M-B&B score, deep dyspareunia ([1]; 10 mg, end of treatment): −0.171±0.4683
change from baseline in mean M-B&B score, dysmenorrhea ([1]; 10 mg, end of treatment): −0.509±0.6675
change from baseline in mean M-B&B score, pelvic pain ([1]; 10 mg, end of treatment): −0.260±0.3624
change from baseline in mean VAS, dysmenorrhea ([1]; 10 mg, end of treatment): −15.356±18.0506 mm
change from baseline in mean VAS, dyspareunia ([1]; 10 mg, end of treatment): −3.454±10.8509 mm
change from baseline in mean VAS, pelvic pain ([1]; 10 mg, end of treatment): −6.849 mm and −6.849±10.5616 mm
change from baseline in mean score of amount of bleeding (0 to 5) ([1]; 10 mg, end of treatment): −0.529±1.2185
change from baseline in proportion of days with usage of pain killer ([1]; 10 mg, end of treatment): −6.32±9.817%
change in proportion of days without pain (M-B&B), deep dyspareunia ([1]; 10 mg, end of treatment): 8.32±35.972%
change in proportion of days without pain (M-B&B), dysmenorrhea ([1]; 10 mg, end of treatment): 29.55±42.700%
change in proportion of days without pain (M-B&B), pelvic pain ([1]; 10 mg, end of treatment): 17.18±26.101%
change in proportion of days without pain (VAS), dysmenorrhea ([1]; 10 mg, end of treatment): 29.28±43.277%
change in proportion of days without pain (VAS), dyspareunia ([1]; 10 mg, end of treatment): 9.72±38.401%
change in proportion of days without pain (VAS), pelvic pain ([1]; 10 mg, end of treatment): 17.90±24.924%
mean VAS score, dyspareunia ([1]; 10 mg, end of treatment): 6.218±10.6280 mm
mean VAS score, pelvic pain ([1]; 10 mg, end of treatment): 7.746±9.0900 mm
subjects who achieved amenorrhea ([1]; 10 mg, end of treatment): 22.3%
subjects without pain in M-B&B score, dysmenorrhea ([1]; 10 mg, end of treatment): 27.2%
subjects without pain in M-B&B score, dyspareunia ([1]; 10 mg, end of treatment): 56.0%
subjects without pain in M-B&B score, pelvic pain ([1]; 10 mg, end of treatment): 24.3%
subjects without pain in VAS score, dysmenorrhea ([1]; 10 mg, end of treatment): 27.2%
subjects without pain in VAS score, dyspareunia ([1]; 10 mg, end of treatment): 48.0%
subjects without pain in VAS score, pelvic pain ([1]; 10 mg, end of treatment): 6.8% and 7%
change from baseline in mean VAS, dysmenorrhea ([1]; 20 mg, Day 1-28): −9.158±16.6375 mm
change from baseline in mean VAS, pelvic pain ([1]; 20 mg, Day 1-28): −3.962±6.6751 mm
mean VAS score, dysmenorrhea ([1]; 20 mg, Day 1-28): 18.545±19.2141 mm
mean VAS score, dyspareunia ([1]; 20 mg, Day 1-28): 10.809±15.5738 mm
mean VAS score, pelvic pain ([1]; 20 mg, Day 1-28): 11.627±14.7324 mm
change from baseline in mean VAS, dysmenorrhea ([1]; 20 mg, Day 57-84): −20.689±21.4387 mm
change from baseline in mean VAS, dyspareunia ([1]; 20 mg, Day 57-84): −0.191±10.6032 mm
change from baseline in mean VAS, pelvic pain ([1]; 20 mg, Day 57-84): −8.547±13.8568 mm
mean VAS score, dysmenorrhea ([1]; 20 mg, Day 57-84): 6.626±13.5146 mm
mean VAS score, dyspareunia ([1]; 20 mg, Day 57-84): 9.229±16.6530 mm
mean VAS score, pelvic pain ([1]; 20 mg, Day 57-84): 6.675±10.8072 mm
change from baseline in mean VAS, dysmenorrhea ([1]; 20 mg, Day 141-168): −19.860±19.1617 mm
change from baseline in mean VAS, dyspareunia ([1]; 20 mg, Day 141-168): −4.012±12.5050 mm
change from baseline in mean VAS, pelvic pain ([1]; 20 mg, Day 141-168): −8.678±10.6479 mm
mean VAS score, dysmenorrhea ([1]; 20 mg, Day 141-168): 6.132±13.2012 mm
mean VAS score, dyspareunia ([1]; 20 mg, Day 141-168): 3.806±8.9781 mm
mean VAS score, pelvic pain ([1]; 20 mg, Day 141-168): 5.486±9.1562 mm
change from baseline in EHP-30, Self-image ([1]; 20 mg, Week 24): −10.59±15.256
change from baseline in EHP-30, control & powerlessness ([1]; 20 mg, Week 24): −20.04±21.880
change from baseline in EHP-30, emotional well-being ([1]; 20 mg, Week 24): −15.37±17.858
change from baseline in EHP-30, pain ([1]; 20 mg, Week 24): −20.58±19.650
change from baseline in EHP-30, social support ([1]; 20 mg, Week 24): −13.44±17.055
change from baseline in mean B&B score, dysmenorrhea ([1]; 20 mg, Week 24): −1.5±0.94
change from baseline in mean B&B score, dyspareunia ([1]; 20 mg, Week 24): −0.4±0.70
change from baseline in mean B&B score, pelvic pain ([1]; 20 mg, Week 24): −0.9±0.85
change from baseline in mean B&B score, pelvic tenderness ([1]; 20 mg, Week 24): −0.8±0.79
subjects without pain in B&B score, dysmenorrhea ([1]; 20 mg, Week 24): 64.9%
subjects without pain in B&B score, dyspareunia ([1]; 20 mg, Week 24): 53.6%
subjects without pain in B&B score, pelvic pain ([1]; 20 mg, Week 24): 39.2%
subjects without pain in B&B score, pelvic tenderness ([1]; 20 mg, Week 24): 37.8%
change from baseline in maximum M-B&B score, dysmenorrhea ([1]; 20 mg, end of treatment): −1.4±1.12
change from baseline in maximum M-B&B score, dyspareunia ([1]; 20 mg, end of treatment): −0.3±0.59
change from baseline in maximum M-B&B score, pelvic pain ([1]; 20 mg, end of treatment): −0.7±0.79
